# Results from patent US20240174662A1, “SMALL MOLECULE INHIBITORS OF SALT INDUCIBLE KINASES” (Janssen Biotech, Inc., priority 2021, published 2024).
# Molecular target: SIK2 (Homo sapiens (Human), UniProt Q9H0K1)
# Assay: SIK2 Enzymatic Assay Version 2 (High ATP)
# Format: biochemical
# Conditions: 3 mM ATP and 200 μM HDAC5tide final, ADP-Glo Max luminescence
# In short: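 Luminescent ADP-Glo Max read-out: depletion reagent 2 h, then detection reagent 1 h. Before the reaction, compounds were incubated 30 min with enzyme added at 6 nM (twice final concentration), with all steps at room temperature.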
# Sequence of SIK2 (Q9H0K1 whole entry, species assumed): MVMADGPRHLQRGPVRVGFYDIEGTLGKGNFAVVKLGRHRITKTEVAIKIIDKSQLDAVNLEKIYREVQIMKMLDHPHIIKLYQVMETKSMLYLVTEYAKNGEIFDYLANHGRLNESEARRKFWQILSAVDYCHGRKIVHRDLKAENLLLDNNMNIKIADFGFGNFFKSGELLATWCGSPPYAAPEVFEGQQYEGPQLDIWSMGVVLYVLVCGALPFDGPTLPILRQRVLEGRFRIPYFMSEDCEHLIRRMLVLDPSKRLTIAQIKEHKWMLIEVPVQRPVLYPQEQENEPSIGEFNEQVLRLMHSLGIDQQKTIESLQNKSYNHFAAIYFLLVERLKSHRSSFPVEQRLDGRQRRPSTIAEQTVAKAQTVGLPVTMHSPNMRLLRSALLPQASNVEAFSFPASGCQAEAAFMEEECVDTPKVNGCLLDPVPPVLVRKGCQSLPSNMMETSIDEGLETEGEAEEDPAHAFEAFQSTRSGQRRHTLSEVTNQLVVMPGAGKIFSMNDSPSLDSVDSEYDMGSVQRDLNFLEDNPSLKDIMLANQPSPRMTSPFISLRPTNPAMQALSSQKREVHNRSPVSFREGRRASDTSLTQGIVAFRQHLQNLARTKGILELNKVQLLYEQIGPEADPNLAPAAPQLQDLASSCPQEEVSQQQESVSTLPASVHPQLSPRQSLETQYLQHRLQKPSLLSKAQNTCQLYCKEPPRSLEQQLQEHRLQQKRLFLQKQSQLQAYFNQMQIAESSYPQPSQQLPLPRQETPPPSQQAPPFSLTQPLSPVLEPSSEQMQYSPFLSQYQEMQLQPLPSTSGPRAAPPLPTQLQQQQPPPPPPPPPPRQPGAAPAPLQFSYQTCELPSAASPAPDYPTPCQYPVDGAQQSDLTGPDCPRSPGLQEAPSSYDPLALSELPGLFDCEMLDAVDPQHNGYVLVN
row,SMILES,IC50
1,"Cc1cc(Nc2cc3cc(-c4c(O[C@@H]5CN[C@H](C(F)F)C5)noc4C)ccn3n2)nc(C)n1 [Example 327, 5-[3-[(3S,5S)-5-(difluoromethyl)pyrrolidin-3-yl]oxy-5-methyl-isoxazol-4-yl]-N-(2,6-dimethylpyrimidin-4-yl)pyrazolo[1,5-a]pyridin-2-amine]",42.8 nM
2,"Cc1onc(OC[C@@H](N)C2CC2)c1-c1ccn2nc(NC(=O)C3CC3)cc2c1 [Example 328, N-[5-[3-[(2S)-2-amino-2-cyclopropyl-ethoxy]-5-methyl-isoxazol-4-yl]pyrazolo[1,5-a]pyridin-2-yl]cyclopropanecarboxamide]",61.8 nM
3,"Cc1onc(OC[C@H]2CCN2C)c1-c1ccc2nc(NC(=O)C3CC3)cn2c1 [Example 329, N-[6-[5-methyl-3-[[(2R)-1-methylazetidin-2-yl]methoxy]isoxazol-4-yl]imidazo[1,2-a]pyridin-2-yl]cyclopropanecarboxamide]",35 nM
4,"Cc1snc(O[C@H]2CCNC2)c1-c1ccn2nc(NC(=O)C3CC3)cc2c1 [Example 330, N-[5-[5-methyl-3-[(3S)-pyrrolidin-3-yl]oxy-isothiazol-4-yl]pyrazolo[1,5-a]pyridin-2-yl]cyclopropanecarboxamide]",35.2 nM
5,"Cc1snc(OC[C@H]2CNCCO2)c1-c1ccn2nc(NC(=O)C3CC3)cc2c1 [Example 331, N-[5-[5-methyl-3-[[(2R)-morpholin-2-yl]methoxy]isothiazol-4-yl]pyrazolo[1,5-a]pyridin-2-yl]cyclopropanecarboxamide]",32.4 nM
6,"Cc1snc(OC[C@H]2CN(C)CCO2)c1-c1ccn2nc(NC(=O)C3CC3)cc2c1 [Example 332, N-[5-[5-methyl-3-[[(2R)-4-methylmorpholin-2-yl]methoxy]isothiazol-4-yl]pyrazolo[1,5-a]pyridin-2-yl]cyclopropanecarboxamide]",58.3 nM
7,"CN1CCO[C@@H](COc2cnn(C)c2-c2ccn3nc(NC(=O)C4CC4)cc3c2)C1 [Example 333, N-[5-[2-methyl-4-[[(2R)-4-methylmorpholin-2-yl]methoxy]pyrazol-3-yl]pyrazolo[1,5-a]pyridin-2-yl]cyclopropanecarboxamide]",54 nM
8,"Cn1ncc(OC[C@H]2C[C@H](N)C2)c1-c1ccn2nc(NC(=O)C3CC3)cc2c1 [Example 334, N-[5-[4-[(3-aminocyclobutyl)methoxy]-2-methyl-pyrazol-3-yl]pyrazolo[1,5-a]pyridin-2-yl]cyclopropanecarboxamide]",55.1 nM
9,"Cn1ncc(O[C@@H]2CCNC2)c1-c1ccn2nc(NC(=O)C3CC3)cc2c1 [Example 335, N-[5-[2-methyl-4-[(3R)-pyrrolidin-3-yl]oxy-pyrazol-3-yl]pyrazolo[1,5-a]pyridin-2-yl]cyclopropanecarboxamide]",68.7 nM
10,"C[C@@H]1C[C@H](Oc2cnn(C)c2-c2ccn3nc(NC(=O)C4CC4)cc3c2)CN1C [Example 336, N-[5-[4-[(3S,5R)-1,5-dimethylpyrrolidin-3-yl]oxy-2-methyl-pyrazol-3-yl]pyrazolo[1,5-a]pyridin-2-yl]cyclopropanecarboxamide]",66.4 nM
11,"C[C@H]1C[C@H](Oc2cnn(C)c2-c2ccn3nc(NC(=O)C4CC4)cc3c2)CN1 [Example 338, N-[5-[2-methyl-4-[(3S,5S)-5-methylpyrrolidin-3-yl]oxy-pyrazol-3-yl]pyrazolo[1,5-a]pyridin-2-yl]cyclopropanecarboxamide]",53 nM
12,"CN1CC[C@H](Oc2cnn(C)c2-c2ccn3nc(Nc4ccc(C(F)(F)F)cn4)cc3c2)C1 [Example 339, 5-[2-methyl-4-[(3S)-1-methylpyrrolidin-3-yl]oxy-pyrazol-3-yl]-N-[5-(trifluoromethyl)-2-pyridyl]pyrazolo[1,5-a]pyridin-2-amine]",68.5 nM
13,"CN1CC[C@H](Oc2cnn(C)c2-c2ccn3nc(Nc4cc(C(F)(F)F)ccn4)cc3c2)C1 [Example 340, 5-[2-methyl-4-[(3S)-1-methylpyrrolidin-3-yl]oxy-pyrazol-3-yl]-N-[4-(trifluoromethyl)-2-pyridyl]pyrazolo[1,5-a]pyridin-2-amine]",55.4 nM
14,"C[C@H]1CN[C@@H]1COc1cnn(C)c1-c1ccn2nc(NC(=O)C3CC3)cc2c1 [Example 341, N-[5-[2-methyl-4-[[(2S,3S)-3-methylazetidin-2-yl]methoxy]pyrazol-3-yl]pyrazolo[1,5-a]pyridin-2-yl]cyclopropanecarboxamide]",57.7 nM
15,"CN1CC[C@H](Oc2cnn(C)c2-c2ccn3nc(Nc4cc5ccccc5nn4)cc3c2)C1 [Example 342, N-[5-[2-methyl-4-[(3S)-1-methylpyrrolidin-3-yl]oxy-pyrazol-3-yl]pyrazolo[1,5-a]pyridin-2-yl]cinnolin-3-amine]",68.8 nM
16,"CN1CC[C@H](Oc2cnn(C)c2-c2ccn3nc(Nc4cnc5ccccc5n4)cc3c2)C1 [Example 343, N-[5-[2-methyl-4-[(3S)-1-methylpyrrolidin-3-yl]oxy-pyrazol-3-yl]pyrazolo[1,5-a]pyridin-2-yl]quinoxalin-2-amine]",54.8 nM
17,"CN1CC[C@H](Oc2cnn(C)c2-c2ccn3nc(Nc4cc5ccccn5n4)cc3c2)C1 [Example 344, 5-[2-methyl-4-[(3S)-1-methylpyrrolidin-3-yl]oxy-pyrazol-3-yl]-N-pyrazolo[1,5-a]pyridin-2-yl-pyrazolo[1,5-a]pyridin-2-amine]",56 nM
18,"Cn1ncc(OC[C@H]2CNC[C@@H]2O)c1-c1ccn2nc(NC(=O)C3CC3)cc2c1 [Example 345, N-[5-[4-[[(3R,4R)-4-hydroxypyrrolidin-3-yl]methoxy]-2-methyl-pyrazol-3-yl]pyrazolo[1,5-a]pyridin-2-yl]cyclopropanecarboxamide]",58.2 nM
19,"Cn1ncc(OC[C@H]2CCN2)c1-c1ccn2nc(NC(=O)C3CC3)cc2c1 [Example 346, (R)—N-(5-(4-(azetidin-2-ylmethoxy)-1-methyl-1H-pyrazol-5-yl)pyrazolo[1,5-a]pyridin-2-yl)cyclopropanecarboxamide]",58.9 nM
20,"Cn1ncc(OC[C@H]2CCN2C2CC2)c1-c1ccn2nc(NC(=O)C3CC3)cc2c1 [Example 347, N-[5-[4-[[(2R)-1-cyclopropylazetidin-2-yl]methoxy]-2-methyl-pyrazol-3-yl]pyrazolo[1,5-a]pyridin-2-yl]cyclopropanecarboxamide]",68 nM
21,"Cn1ncc(OC[C@@H](N)C(C)(C)C)c1-c1ccn2nc(NC(=O)C3CC3)cc2c1 [Example 348, N-[5-[4-[(2S)-2-amino-3,3-dimethyl-butoxy]-2-methyl-pyrazol-3-yl]pyrazolo[1,5-a]pyridin-2-yl]cyclopropanecarboxamide]",55.3 nM
22,"Cc1ncc(Nc2cc3cc(-c4c(O[C@H]5CCN(C)C5)cnn4C)ccn3n2)nc1C [Example 349, N-(5,6-dimethylpyrazin-2-yl)-5-[2-methyl-4-[(3S)-1-methylpyrrolidin-3-yl]oxy-pyrazol-3-yl]pyrazolo[1,5-a]pyridin-2-amine]",55.9 nM
23,"Cn1ncc(OC[C@H]2CCCN2CCF)c1-c1ccn2nc(NC(=O)C3CC3)cc2c1 [Example 350, N-[5-[4-[[(2R)-1-(2-fluoroethyl)pyrrolidin-2-yl]methoxy]-2-methyl-pyrazol-3-yl]pyrazolo[1,5-a]pyridin-2-yl]cyclopropanecarboxamide]",66.2 nM
